Measurements as given in patent US11629139B2 (priority 2017, dated 2023).

What was measured:
[1] = human, microsomes
[2] = plasma
[3] = pH 7.4
[4] = mouse, in vivo; for AUClast / T1/2 / Tmax: po, 50 mg/kg
[5] = system: vesicular stomatitis virus particles (VSV) pseudotyped with EboV Zaire GP; settings: cited from earlier work
[6] = system: VSV G; settings: cited from earlier work
[7] = system: Lassa fever virus (LFV) GP; settings: cited from earlier work
[8] = system: EBOV G-A82; experiment: microbe, parasite or virus in culture; assay type: cell-based, Ebola virus; settings: Zaire ebolavirus, HeLa, read-out: EBOV G-A82 (Hela) EC50
[9] = system: EBOV Kikwit; experiment: microbe, parasite or virus in culture; assay type: cell-based, Ebola virus; settings: Zaire ebolavirus, HeLa, read-out: EBOV Kikwit(Hela) EC50
[10] = system: EBOV Makona; experiment: microbe, parasite or virus in culture; assay type: cell-based, Ebola virus; settings: Zaire ebolavirus, HeLa, read-out: EBOV Makona (Hela) EC50
[11] = system: Ebola virus (Mayinga); experiment: microbe, parasite or virus in culture; assay type: cell-based; settings: Zaire ebolavirus, HeLa, read-out: EBOV Maiynga) (Hela) EC50
[12] = in vivo; settings: mouse, po
[13] = in vitro; settings: mouse, plasma, m-plasma protein binding

Compound: [2H]C([2H])(c1cc(Cl)ccc1N)N1CCN(C(=O)CNC(=O)C2CC23CCC(F)(F)CC3)CC1 (single isomer, unassigned; (-)) [(−)-1413]
- Increase of stability in mouse liver microsomes by ritonavir: 10- to 30 fold
- MLM T½ (mouse, microsomes): 3 min
- MLM, T½ (min) (ritonavir 3 μM) (mouse, microsomes): 91 min
- HLM T½ [1]: 0.267 h
- Mouse PPB (% bound) [2]: 87.9%
- Kinetic solubility [3]: 78 µM
- C@12 hr [4]: 2.0 µM
- Cl_obs [4]: 15.5 mL/min/kg
- AUClast [4]: 120.9 µM·h
- T1/2 [4]: 3.2 h
- Tmax [4]: 1.7 h

Compound: [2H]C([2H])(c1cc(Cl)ccc1NCc1ccc(S(C)(=O)=O)cc1)N1CCN(C(=O)CNC(=O)C2CC23CCC(F)(F)CC3)CC1 (single isomer, unassigned; (-)) [(−)-1503]
- MLM T½ (mouse, microsomes): 2 min
- MLM, T½ (min) (ritonavir 3 μM) (mouse, microsomes): 87 min
- HLM T½ [1]: 0.017 h
- Mouse PPB (% bound) [2]: 99.8%
- Kinetic solubility [3]: 4 µM
- C@12 hr [4]: 5.7 µM
- Cl_obs [4]: 12.5 mL/min/kg
- Plasma concentration after 12 hours relative to in vitro IC50 against rVSV EBOV infection in 50% human serum [4]: 50 fold
- AUClast [4]: 107.5 µM·h
- T1/2 [4]: 1.7 h
- Tmax [4]: 7.3 h

Compound: O=C(CC12CC3CC(CC(C3)C1)C2)NCC(=O)N1CCN(Cc2ccccc2)CC1 [Compound 3.0]
- Infection of Vero cells by VSV pseudotyped with EboV Zaire GP [5]: inhibits infection
- Infection of Vero cells by VSV particles with VSV G [6]: not
- Infection of Vero cells by VSV pseudotyped with Lassa fever virus (LFV) GP [7]: not

Compound: CS(=O)(=O)c1ccc(COc2ccc(Cl)cc2CN2CCN(C(=O)CNC(=O)C3CC34CCC(F)(F)CC4)CC2)cc1 (centres unmarked) [Compound 1476]
- EC50 [8]: < 80 nM
- EC50 [9]: 210 nM
- EC50 [10]: 140 nM
- EC50 [11]: 420 nM
- m-μsome T1/2 (with 3 μM of Ritonavir) (mouse, microsomes, pH 7.4): 2.83 h
- C@12 hr [4]: 14 µM
- AUC [12]: 314 µM·h
- Cmax [12]: 23 µM
- half-life [12]: 6.1 h
- fraction unbound [13]: 0.013
